Source: US10537558B2 (Bantam Pharmaceutical, LLC, priority 2015, dated 2020)

Test system: BJAB cells
Assay: BJAB cell proliferation (Cell Titer Glo)
Type: cell-based
Settings: Homo sapiens, read-out: EC50
In short: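 EC50 values come from non-linear regression of luminescence (Cell Titer Glo), expressed relative to untreated wells. BJAB cells were incubated roughly 72 h at 37 °C with serial compound dilutions carrying 0.1% final DMSO.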

| SMILES | EC50 |
| --- | --- |
| Cc1nn(-c2nc(-c3ccc(-c4cccc(F)c4)nc3)c(SC(C)C)s2)c(C(=O)O)c1Br [Compound 179, 4-bromo-1-(4-(6-(3-fluorophenyl)pyridin-3-yl)-5-(isopropylthio)thiazol-2-yl)-3-methyl-1H-pyrazole-5-carboxylic Acid] | 25 to 50 µM |
| Cc1cc(-c2c(C)nn(-c3nc(-c4ccc(Cl)c(Cl)c4)c(SC(C)C)s3)c2C(=O)O)cc(O[C@@H]2CCOC2)n1 [Compound 180, (R)-1-(4-(3,4-dichlorophenyl)-5-(isopropylthio)thiazol-2-yl)-3-methyl-4-(2-methyl-6-((tetrahydrofuran-3-yl)oxy)pyridin-4-yl)-1H-pyrazole-5-carboxylic Acid] | 10 to 25 µM |
| COCCOc1cc(-c2c(C)nn(-c3nc(-c4ccc(Cl)c(Cl)c4)c(SC(C)C)s3)c2C(=O)O)cc(C)n1 [Compound 181, 1-(4-(3,4-dichlorophenyl)-5-(isopropylthio)thiazol-2-yl)-4-(2-(2-methoxyethoxy)-6-methylpyridin-4-yl)-3-methyl-1H-pyrazole-5-carboxylic Acid] | 10 to 25 µM |
| Cc1cc(-c2c(C)nn(-c3nc(-c4ccc(Cl)c(Cl)c4)c(SC(C)C)s3)c2C(=O)O)cc(O[C@H]2CCOC2)n1 [Compound 182, (S)-1-(4-(3,4-dichlorophenyl)-5-(isopropylthio)thiazol-2-yl)-3-methyl-4-(2-methyl-6-((tetrahydrofuran-3-yl)oxy)pyridin-4-yl)-1H-pyrazole-5-carboxylic acid] | 10 to 25 µM |
| Cc1nn(-c2nc(C3=CCCCC3)c(SC(C)C)s2)c(C(=O)O)c1-c1cccc(F)c1 [Compound 183, 1-(4-(cyclohex-1-en-1-yl)-5-(isopropylthio)thiazol-2-yl)-4-(3-fluorophenyl)-3-methyl-1H-pyrazole-5-carboxylic Acid] | 5 to 10 µM |
| Cc1nn(-c2nc(C3=CCCC3)c(SC(C)C)s2)c(C(=O)O)c1-c1cccc(F)c1 [Compound 184, 1-(4-(cyclopent-1-en-1-yl)-5-(isopropylthio)thiazol-2-yl)-4-(3-fluorophenyl)-3-methyl-1H-pyrazole-5-carboxylic acid] | 10 to 25 µM |
| COc1cc(Cl)cc(-c2c(C)nn(-c3nc(-c4ccccc4)c(SC(C)C)s3)c2C(=O)O)c1 [Compound 185, 4-(3-chloro-5-methoxyphenyl)-1-(5-(isopropylthio)-4-phenylthiazol-2-yl)-3-methyl-1H-pyrazole-5-carboxylic Acid] | 10 to 25 µM |
| Cc1nn(-c2nc(-c3ccc(F)cc3)c(SC(C)C)s2)c(C(=O)O)c1-c1cccc(F)c1 [Compound 186, 4-(3-fluorophenyl)-1-(4-(4-fluorophenyl)-5-(isopropylthio)thiazol-2-yl)-3-methyl-1H-pyrazole-5-carboxylic Acid] | 1 to 5 µM |
| COc1ccc(-c2nc(-n3nc(C)c(-c4cccc(F)c4)c3C(=O)O)sc2SC(C)C)cc1 [Compound 187, 4-(3-fluorophenyl)-1-(5-(isopropylthio)-4-(4-methoxyphenyl)thiazol-2-yl)-3-methyl-1H-pyrazole-5-carboxylic Acid] | 10 to 25 µM |
| Cc1nn(-c2nc(-c3ccc(S(C)(=O)=O)cc3)c(SC(C)C)s2)c(C(=O)O)c1-c1cccc(F)c1 [Compound 188, 4-(3-fluorophenyl)-1-(5-(isopropylthio)-4-(4-(methylsulfonyl)phenyl)thiazol-2-yl)-3-methyl-1H-pyrazole-5-carboxylic Acid] | > 40 µM |
| COc1cc(-c2nc(-n3nc(C)c(-c4cccc(F)c4)c3C(=O)O)sc2SC(C)C)ccc1F [Compound 189, 1-(4-(4-fluoro-3-methoxyphenyl)-5-(isopropylthio)thiazol-2-yl)-4-(3-fluorophenyl)-3-methyl-1H-pyrazole-5-carboxylic Acid] | 10 to 25 µM |
| Cc1cc(-c2c(C)nn(-c3nc(-c4ccc(Cl)c(C)c4)c(SC(C)C)s3)c2C(=O)O)cc(C)n1 [Compound 190, 1-(4-(4-chloro-3-methylphenyl)-5-(isopropylthio)thiazol-2-yl)-4-(2,6-dimethylpyridin-4-yl)-3-methyl-1H-pyrazole-5-carboxylic Acid] | 1 to 5 µM |
| Cc1cc(-c2nc(-n3nc(C)c(-c4cccc(F)c4)c3C(=O)O)sc2SC(C)C)ccc1Cl [Compound 191, 1-(4-(4-chloro-3-methylphenyl)-5-(isopropylthio)thiazol-2-yl)-4-(3-fluorophenyl)-3-methyl-1H-pyrazole-5-carboxylic Acid] | 1 to 5 µM |
| Cc1cc(-c2c(C)nn(-c3nc(-c4cc(F)c(Cl)c(F)c4)c(SC(C)C)s3)c2C(=O)O)cc(C)n1 [Compound 192, 1-(4-(4-chloro-3,5-difluorophenyl)-5-(isopropylthio)thiazol-2-yl)-4-(2,6-dimethylpyridin-4-yl)-3-methyl-1H-pyrazole-5-carboxylic Acid] | 1 to 5 µM |
| Cc1nn(-c2nc(-c3cc(F)c(Cl)c(F)c3)c(SC(C)C)s2)c(C(=O)O)c1-c1cccc(F)c1 [Compound 193, 1-(4-(4-chloro-3,5-difluorophenyl)-5-(isopropylthio)thiazol-2-yl)-4-(3-fluorophenyl)-3-methyl-1H-pyrazole-5-carboxylic Acid] | 1 to 5 µM |
| COc1cc(-c2nc(-n3nc(C)c(-c4cc(C)nc(C)c4)c3C(=O)O)sc2SC(C)C)ccc1Cl [Compound 194, 1-(4-(4-chloro-3-methoxyphenyl)-5-(isopropylthio)thiazol-2-yl)-4-(2,6-dimethylpyridin-4-yl)-3-methyl-1H-pyrazole-5-carboxylic Acid] | 1 to 5 µM |

| SMILES | EC50 |
| --- | --- |
| COc1cc(-c2nc(-n3nc(C)c(-c4cccc(F)c4)c3C(=O)O)sc2SC(C)C)ccc1Cl [Compound 195, 1-(4-(4-chloro-3-methoxyphenyl)-5-(isopropylthio)thiazol-2-yl)-4-(3-fluorophenyl)-3-methyl-1H-pyrazole-5-carboxylic Acid] | 5 to 10 µM |
| Cc1cc(-c2c(C)nn(-c3nc(-c4ccc(C(F)(F)F)cc4)c(SC(C)C)s3)c2C(=O)O)cc(C)n1 [Compound 196, 4-(2,6-dimethylpyridin-4-yl)-1-(5-(isopropylthio)-4-(4-(trifluoromethyl)phenyl)thiazol-2-yl)-3-methyl-1H-pyrazole-5-carboxylic Acid] | 1 to 5 µM |
| Cc1nn(-c2nc(-c3ccc(C(F)(F)F)cc3)c(SC(C)C)s2)c(C(=O)O)c1-c1cccc(F)c1 [Compound 197, 4-(3-fluorophenyl)-1-(5-(isopropylthio)-4-(4-(trifluoromethyl)phenyl)thiazol-2-yl)-3-methyl-1H-pyrazole-5-carboxylic Acid] | < 1 µM |
| COc1cc(-c2c(C)nn(-c3nc(-c4ccc(Cl)c(Cl)c4)c(SC(C)C)s3)c2C(=O)O)cc(C)n1 [Compound 199, 1-(4-(3,4-dichlorophenyl)-5-(isopropylthio)thiazol-2-yl)-4-(2-methoxy-6-methylpyridin-4-yl)-3-methyl-1H-pyrazole-5-carboxylic Acid] | 1 to 5 µM |
| Cc1nn(-c2nc(-c3ccc(Cl)c(Cl)c3)c(SC(C)C)s2)c(C(=O)O)c1-c1cc(F)cc(OC2COC2)c1 [Compound 200, 1-(4-(3,4-dichlorophenyl)-5-(isopropylthio)thiazol-2-yl)-4-(3-fluoro-5-(oxetan-3-yloxy)phenyl)-3-methyl-1H-pyrazole-5-carboxylic Acid] | 1 to 5 µM |
| Cc1nn(-c2nc(-c3cccc(F)c3)c(SC(C)C)s2)c(C(=O)O)c1-c1cccc(F)c1 [Compound 201a] | 25 to 50 µM |
| Cc1nn(-c2nc(-c3cc4ccccc4o3)c(SC(C)C)s2)c(C(=O)O)c1-c1cccc(F)c1 [Compound 201b] | 10 to 25 µM |
| Cc1nn(-c2nc(-c3ccccc3)c(SC(C)C)s2)c(C(=O)O)c1-c1cccc(F)c1 [Compound 202, 4-(3-fluorophenyl)-1-(5-(isopropylthio)-4-phenylthiazol-2-yl)-3-methyl-1H-pyrazole-5-carboxylic acid] | 10 to 25 µM |
| Cc1nn(-c2nc(-c3ccccc3)c(SC(C)C)s2)c(C(=O)O)c1-c1cnn(C)c1 [Compound 203, 1-(5-(isopropylthio)-4-phenylthiazol-2-yl)-1′,3-dimethyl-1H,1′H-[4,4′-bipyrazole]-5-carboxylic acid] | > 40 µM |
| Cc1cc(-c2c(C)nn(-c3nc(-c4ccc(F)cc4)c(SC(C)C)s3)c2C(=O)O)cc(C)n1 [Compound 204, 4-(2,6-dimethylpyridin-4-yl)-1-(4-(4-fluorophenyl)-5-(isopropylthio)thiazol-2-yl)-3-methyl-1H-pyrazole-5-carboxylic acid] | 1 to 5 µM |
| COc1cc(Cl)ccc1-c1nc(-n2nc(C)c(-c3cccc(F)c3)c2C(=O)O)sc1SC(C)C [Compound 205, 1-(4-(4-chloro-2-methoxyphenyl)-5-(isopropylthio)thiazol-2-yl)-4-(3-fluorophenyl)-3-methyl-1H-pyrazole-5-carboxylic acid] | 1 to 5 µM |
| COc1cc(Cl)ccc1-c1nc(-n2nc(C)c(-c3cc(C)nc(C)c3)c2C(=O)O)sc1SC(C)C [Compound 206, 1-(4-(4-chloro-2-methoxyphenyl)-5-(isopropylthio)thiazol-2-yl)-4-(2,6-dimethylpyridin-4-yl)-3-methyl-1H-pyrazole-5-carboxylic Acid] | 1 to 5 µM |
| Cc1ccc(-c2nc(-n3nc(C)c(-c4cccc(F)c4)c3C(=O)O)sc2SC(C)C)cc1Cl [Compound 207, 1-(4-(3-chloro-4-methylphenyl)-5-(isopropylthio)thiazol-2-yl)-4-(3-fluorophenyl)-3-methyl-1H-pyrazole-5-carboxylic Acid] | 5 to 10 µM |
| Cc1nn(-c2nc(-c3cc(C)c(=O)n(C)c3)c(SC(C)C)s2)c(C(=O)O)c1-c1cccc(F)c1 [Compound 208, 1-(4-(1,5-dimethyl-6-oxo-1,6-dihydropyridin-3-yl)-5-(isopropylthio)thiazol-2-yl)-4-(3-fluorophenyl)-3-methyl-1H-pyrazole-5-carboxylic Acid] | > 40 µM |
| Cc1nn(-c2nc(-c3cc(OC(F)(F)F)ccc3Cl)c(SC(C)C)s2)c(C(=O)O)c1-c1cccc(F)c1 [Compound 209, 1-(4-(2-chloro-5-(trifluoromethoxy)phenyl)-5-(isopropylthio)thiazol-2-yl)-4-(3-fluorophenyl)-3-methyl-1H-pyrazole-5-carboxylic acid] | 10 to 25 µM |
